# Patent US20180271110A1, “REDUCTION OF MICROBIAL ACTIVITY AND METHOD OF PROCESSING ANIMAL AND POULTRY PRODUCTS” (Zee Company, priority 2017, published 2018)
# Read-outs that look alike come from different tables or passages of the source.
# Tests used:
# [1] = tested on: Salmonella Enterica serovar enteriditis (SE); experiment: Antimicrobial efficacy of DCDMH vs DBDMH on Salmonella-contaminated chicken legs and beef cubes (15 s agitation in solution); assay type: cell-based; settings: for log Reduction Ave.: 15 s agitation, 15 s drip
# Experimental: In the following working example, a study was conducted to compare the antimicrobial efficacy of 1,3,-dichloro-5,5,-dimethylhydantoin (DCDMH) and 1,3,-dibromo-5,5,-dimethylhydantoin (DBDMH) at 200 ppm available chlorine on both chicken and beef test substrates. For sample preparation, chicken legs and beef cubes obtained from a local grocery store were used to conduct the following tests. Prior to exposure of the test substrates to the antimicrobial solutions having DCDMH or DBDMH, the test substrates were exposed for two hours in 300 mL of broth of Salmonella Enterica serovar enteriditis (SE), which had been grown to a concentration of >6 log 10 in Nutrient Broth for 2 h at 35° C. Following exposure, the test substrates were removed from the Nutrient Broth and allowed to drain and air dry for about 30 minutes at ambient room temperature before testing began.
# 1. The following solutions were prepared and distributed in 200 mL aliquots into Ziploc bags:
# a. 200 ppm available chlorine solutions derived from DCDMH distributed it into an appropriate number of Ziploc bags;
# b. FSIS new buffer solution containing Lecithin and Sodium thiosulfate (LST) into an appropriate number of Ziploc bags;
# c. Phosphate Buffer Solution (PBS) into an appropriate number of Ziploc bags.
# 2. Into each bag of DCDMH solution, a Salmonella-contaminated test substrate was placed and agitated manually for 15 s. The test substrate was removed from the bag, allowed to drip for 15 s, then placed into a Ziploc bag containing 200 mL LST. The bag was then vigorously shaken for 45 s to neutralize the DCDMH and to release SE from the surface of the chicken leg.
# 3. After the bags were shaken, 100 μL from each of the shaken bags was removed and dispensed into test tubes containing 9.9 mL of DI HOH. The contents of these tubes were used for serial dilution.
# 4. As controls, a prepared test substrate was inserted into each of two bags of PBS and agitated manually for 15 s. The substrate was removed from the bag and placed directly into a Ziploc bag containing 200 mL LST. The bag was vigorously shaken for 45 s to release SE from the surface of the substrate.
# 5. Repeat Step 3 with the control solutions.
# 6. Serially dilute the contents of the test tubes from Step 3 above. Plate 100 μL aliquots on Salmonella-Shigella Agar (SSA), then incubate for 18-24 h at 35° C. Enumerate colonies that have black centers (presumptive SE) after incubation.
# 7. Repeat the entire protocol replacing the DCDMH solution with […] solution in Step 1.a.
# [2] = tested on: Salmonella Enterica serovar enteriditis (SE)
# Experimental: In the following working example, a study was conducted to compare the antimicrobial efficacy of 1,3,-dichloro-5,5,-dimethylhydantoin (DCDMH) at various concentrations (100 ppm, 200 ppm, and 400 ppm) on beef test substrates from beef brisket and beef liver. For sample preparation, beef brisket and beef liver were cubed to have approximately […] of exposed surface. Prior to exposure of the test substrates to the antimicrobial solutions having DCDMH, the test substrates were incubated for two hours in 300 mL of broth of Salmonella Enterica serovar enteriditis (SE), which had been grown to a concentration of >6 log 10 in Nutrient Broth for 2 h at 35° C. Following exposure, the test substrates were removed from the Nutrient Broth and allowed to drain and air dry for about 30 minutes at ambient room temperature before testing began. The test was replicated 10 times for each concentration and two controls. The concentration of DCDMH was then tested on the exposed test substrates using spray and dip applications.
# 1. A test substrate cube was suspended on a stainless steel hook and the antimicrobial solution was atomized onto the cube to thoroughly cover all sides until solution was dripping from the test substrate cube, which was for about 5 to about 10 seconds;
# 2. The test substrate cube was allowed to drip for about 10 to about 50 seconds (to obtain total antimicrobial contact times of about 15 to about 60 seconds when combined with the exposure in step 1 above).
# 3. The test substrate cube was then placed in a Ziploc bag containing 100 mL of LST solution to neutralize any residual antimicrobial chemistry;
# (§1) 4. The Ziploc bag containing the test substrate cube was then vigorously shaken for about for 45 seconds to release bacterial cells from the surface of the meat into the LST solution;
# (§2) 5. A 100 μL aliquot of LST solution from the bag was injected into 9.9 mL of sterile phosphate buffer solution;
# (§3) 6. The LST solution was serially diluted, then plated on Salmonella Shigella agar and incubated for 24 h prior to counting presumptive positive Salmonella colonies;
# (§4) 7. This procedure was repeated at each concentration of DCDMH;
# 8. For controls, 2 cubes of each test substrate were treated as in steps 1-2 above, except the control substrate cubes were atomized with sterile deionized water in step 1 above. And then steps 2-6 of the process above were continued.
# 1. A test substrate cube was placed in a Ziploc bag containing 100 mL of the antimicrobial solution and allowed to remain in the solution for about 15 to about 30 seconds under gentle manual agitation;
# 2. The test substrate cube was removed from the test solution using sterile forceps and allowed to drip for about 0 to about 30 seconds (to obtain total antimicrobial contact times of about 15 to about 60 seconds when combined with the exposure in step 1 above);
# 8. For controls, 2 cubes of each test substrate were treated as in steps 1-2 above, except the control substrate cubes were placed in 100 mL Ziploc bags of phosphate buffer solution in step 1 above. And then steps 2-6 of the process above were continued.
# [3] = tested on: Salmonella Enterica serovar enteriditis (SE); remark: listed apart in the source
# Experimental: In the following working example, a study was conducted to compare the antimicrobial efficacy of 1,3,-dichloro-5,5,-dimethylhydantoin (DCDMH) at various concentrations (50 ppm, 100 ppm, and 200 ppm) on chicken test substrates, namely, chicken legs and chicken liver. Prior to exposure of the test substrates to the antimicrobial solutions having DCDMH, the test substrates were incubated for two hours in 1000 mL of broth of Salmonella Enterica serovar enteriditis (SE), which had been grown to a concentration of >6 log 10 in Nutrient Broth for 2 h at 35° C. Following exposure, the test substrates were removed from the Nutrient Broth and allowed to drain and air dry for about 30 minutes at ambient room temperature before testing began. The test was replicated 10 times for each concentration and two controls. The concentration of DCDMH was then tested on the exposed test substrates using spray and dip applications.
# 1. A test poultry product (e.g., chicken leg or chicken liver) was suspended on a stainless steel hook in a spray cabinet and sprayed until the part was drenched with antimicrobial solution, which was for about 5 to about 10 seconds;
# 2. The test poultry product was allowed to drip for about 10 to about 50 seconds (to obtain total antimicrobial contact times of about 15 to about 60 seconds when combined with the exposure in step 1 above);
# 3. The test poultry product was then placed in a Ziploc bag containing 200 mL of LST solution to neutralize any residual antimicrobial chemistry;
# 4. The Ziploc bag containing the test poultry product was then vigorously shaken for about for 45 seconds to release bacterial cells from the surface of the poultry product into the LST solution;
# as §2
# 6. The LST solution was serially diluted, then plated on Salmonella Shigella agar and incubated for 24-36 hours prior to counting presumptive positive Salmonella colonies;
# as §4
# 8. For controls, 2 poultry legs and 2 poultry livers for the corresponding test were treated as in steps 1-2 above, except the control poultry products were drenched with sterile deionized water in step 1 above. And then steps 2-6 of the process above were continued.
# 1. A test poultry product was placed in a Ziploc bag containing 200 mL of the antimicrobial solution and allowed to remain in the solution for about 15 to about 30 seconds under gentle manual agitation;
# 2. The test poultry product was removed from the test solution using sterile forceps and allowed to drip for about 0 to about 30 seconds (to obtain total antimicrobial contact times of about 15 to about 60 seconds when combined with the exposure in step 1 above);
# 3. The test poultry product was then placed in a Ziploc bag containing 200 mL broth of LST solution to neutralize any residual antimicrobial chemistry;
# as §1, §3
# 8. For controls, 2 poultry legs and 2 poultry liver for each test were treated as in steps 1-2 above, except the test substrate cubes were placed in 200 mL Ziploc bags of phosphate buffer solution in step 1 above. And then steps 2-6 of the process above were continued.
# [4] = beef test substrate, 200 ppm available chlorine
# [5] = chicken test substrate, 200 ppm available chlorine
structure (smiles),measurement,setting,value
"CC1(C)C(=O)N(Br)C(=O)N1Br [DBDMH, 1,3,-dibromo-5,5,-dimethylhydantoin, reference compound]",log Reduction Ave.,[1]; [4],0.15 log
same,log Reduction Ave.,[1]; [5],0.29 log
"CC1(C)C(=O)N(Cl)C(=O)N1Cl [DCDMH, 1,3,-dichloro-5,5,-dimethylhydantoin]",antimicrobial efficacy against S. Enteritidis compared with DBDMH,"[1]; 200 ppm available chlorine, chicken and beef, short contact time",substantially greater antimicrobial efficacy
same,log Reduction Ave.,[1]; [4],0.51 log
same,log Reduction Ave.,[1]; [5],0.64 log
same,anticipated efficacy (log reduction) under normal in-plant use conditions,"[1]; normal in-plant use conditions, anticipated",> 1 log
same,Ave. Log Reduction,"[2]; Beef Liver, Active Cl 100 ppm, Dip, 60 seconds",0.90 log
same,Ave. Log Reduction,"[2]; Beef Liver, Active Cl 200 ppm, Spray, 30 seconds",1.01 log
same,Ave. Log Reduction,"[2]; Beef Liver, Active Cl 400 ppm, Dip, 15 seconds",1.11 log
same,Ave. Log Reduction,"[2]; Beef Muscle, Active Cl 100 ppm, Dip, 60 seconds",0.89 log
same,Ave. Log Reduction,"[2]; Beef Muscle, Active Cl 200 ppm, Spray, 30 seconds",0.91 log
same,Ave. Log Reduction,"[2]; Beef Muscle, Active Cl 400 ppm, Dip, 15 seconds",1.18 log
same,antimicrobial efficacy against S. Enteritidis,"[2]; about 100 ppm to about 400 ppm, dip or spray application, beef substrates",great antimicrobial efficacy
same,anticipated efficacy (log reduction) under normal in-plant use conditions,"[2]; normal in-plant use conditions, about 100 to about 400 ppm, dip or spray, anticipated",> 1 log
same,Ave. Log Reduction,"[3]; Chicken Leg, Active Cl 50 ppm, Dip, 60 seconds",0.78 log
same,Ave. Log Reduction,"[3]; Chicken Leg, Active Cl 100 ppm, Spray, 30 seconds",0.86 log
same,Ave. Log Reduction,"[3]; Chicken Leg, Active Cl 200 ppm, Dip, 15 seconds",1.22 log
same,Ave. Log Reduction,"[3]; Chicken Liver, Active Cl 50 ppm, Dip, 60 seconds",0.69 log
same,Ave. Log Reduction,"[3]; Chicken Liver, Active Cl 100 ppm, Spray, 30 seconds",0.72 log
same,Ave. Log Reduction,"[3]; Chicken Liver, Active Cl 200 ppm, Dip, 15 seconds",1.07 log
same,antimicrobial efficacy against S. Enteritidis,"[3]; about 50 ppm to about 200 ppm, dip or spray application, poultry products",great antimicrobial efficacy
same,anticipated efficacy (log reduction) under normal in-plant use conditions,"[3]; normal in-plant use conditions, about 50 to about 200 ppm, dip or spray, anticipated",> 1 log
